Reference: ChEMBL document CHEMBL1137510, “Discovery of potent T-type calcium channel blocker” (Bioorg Med Chem Lett, 2007)

Columns and labels:
Format in all cases: cell-based
[1] = target: Voltage-dependent T-type calcium channel subunit alpha-1G (Homo sapiens) (UniProt O43497); experiment: Inhibition of T-type calcium channel Cav3.1 alpha-1G subunit expressed in HEK293 cells assessed as calcium current at 10 uM by high throughput screening
[2] = test system: HEK293; experiment: Selectivity for Alpha-1B N-type calcium channel over alpha-1G T-type calcium channel expressed in HEK293 cells at 10 uM; conditions: Homo sapiens
[3] = target: Voltage-dependent N-type calcium channel subunit alpha-1B (Homo sapiens) (UniProt Q00975); experiment: Inhibition of N-type calcium channel […] alpha-1B subunit expressed in HEK293 cells assessed as calcium current at 10 uM by patch-clamp assay
[4] = target: Voltage-dependent T-type calcium channel subunit alpha-1G (Homo sapiens) (UniProt O43497); experiment: Inhibition of T-type calcium channel Cav3.1 alpha-1G subunit expressed in HEK293 cells assessed as calcium current at 10 uM by patch-clamp assay
[5] = test system: HEK293; experiment: Selectivity for alpha-1B N-type calcium channel over alpha1G T-type calcium channel expressed in HEK293 cells; conditions: Homo sapiens

Voltage-dependent N-type calcium channel subunit alpha-1B (Homo sapiens), sequence (Q00975 whole entry, looked up): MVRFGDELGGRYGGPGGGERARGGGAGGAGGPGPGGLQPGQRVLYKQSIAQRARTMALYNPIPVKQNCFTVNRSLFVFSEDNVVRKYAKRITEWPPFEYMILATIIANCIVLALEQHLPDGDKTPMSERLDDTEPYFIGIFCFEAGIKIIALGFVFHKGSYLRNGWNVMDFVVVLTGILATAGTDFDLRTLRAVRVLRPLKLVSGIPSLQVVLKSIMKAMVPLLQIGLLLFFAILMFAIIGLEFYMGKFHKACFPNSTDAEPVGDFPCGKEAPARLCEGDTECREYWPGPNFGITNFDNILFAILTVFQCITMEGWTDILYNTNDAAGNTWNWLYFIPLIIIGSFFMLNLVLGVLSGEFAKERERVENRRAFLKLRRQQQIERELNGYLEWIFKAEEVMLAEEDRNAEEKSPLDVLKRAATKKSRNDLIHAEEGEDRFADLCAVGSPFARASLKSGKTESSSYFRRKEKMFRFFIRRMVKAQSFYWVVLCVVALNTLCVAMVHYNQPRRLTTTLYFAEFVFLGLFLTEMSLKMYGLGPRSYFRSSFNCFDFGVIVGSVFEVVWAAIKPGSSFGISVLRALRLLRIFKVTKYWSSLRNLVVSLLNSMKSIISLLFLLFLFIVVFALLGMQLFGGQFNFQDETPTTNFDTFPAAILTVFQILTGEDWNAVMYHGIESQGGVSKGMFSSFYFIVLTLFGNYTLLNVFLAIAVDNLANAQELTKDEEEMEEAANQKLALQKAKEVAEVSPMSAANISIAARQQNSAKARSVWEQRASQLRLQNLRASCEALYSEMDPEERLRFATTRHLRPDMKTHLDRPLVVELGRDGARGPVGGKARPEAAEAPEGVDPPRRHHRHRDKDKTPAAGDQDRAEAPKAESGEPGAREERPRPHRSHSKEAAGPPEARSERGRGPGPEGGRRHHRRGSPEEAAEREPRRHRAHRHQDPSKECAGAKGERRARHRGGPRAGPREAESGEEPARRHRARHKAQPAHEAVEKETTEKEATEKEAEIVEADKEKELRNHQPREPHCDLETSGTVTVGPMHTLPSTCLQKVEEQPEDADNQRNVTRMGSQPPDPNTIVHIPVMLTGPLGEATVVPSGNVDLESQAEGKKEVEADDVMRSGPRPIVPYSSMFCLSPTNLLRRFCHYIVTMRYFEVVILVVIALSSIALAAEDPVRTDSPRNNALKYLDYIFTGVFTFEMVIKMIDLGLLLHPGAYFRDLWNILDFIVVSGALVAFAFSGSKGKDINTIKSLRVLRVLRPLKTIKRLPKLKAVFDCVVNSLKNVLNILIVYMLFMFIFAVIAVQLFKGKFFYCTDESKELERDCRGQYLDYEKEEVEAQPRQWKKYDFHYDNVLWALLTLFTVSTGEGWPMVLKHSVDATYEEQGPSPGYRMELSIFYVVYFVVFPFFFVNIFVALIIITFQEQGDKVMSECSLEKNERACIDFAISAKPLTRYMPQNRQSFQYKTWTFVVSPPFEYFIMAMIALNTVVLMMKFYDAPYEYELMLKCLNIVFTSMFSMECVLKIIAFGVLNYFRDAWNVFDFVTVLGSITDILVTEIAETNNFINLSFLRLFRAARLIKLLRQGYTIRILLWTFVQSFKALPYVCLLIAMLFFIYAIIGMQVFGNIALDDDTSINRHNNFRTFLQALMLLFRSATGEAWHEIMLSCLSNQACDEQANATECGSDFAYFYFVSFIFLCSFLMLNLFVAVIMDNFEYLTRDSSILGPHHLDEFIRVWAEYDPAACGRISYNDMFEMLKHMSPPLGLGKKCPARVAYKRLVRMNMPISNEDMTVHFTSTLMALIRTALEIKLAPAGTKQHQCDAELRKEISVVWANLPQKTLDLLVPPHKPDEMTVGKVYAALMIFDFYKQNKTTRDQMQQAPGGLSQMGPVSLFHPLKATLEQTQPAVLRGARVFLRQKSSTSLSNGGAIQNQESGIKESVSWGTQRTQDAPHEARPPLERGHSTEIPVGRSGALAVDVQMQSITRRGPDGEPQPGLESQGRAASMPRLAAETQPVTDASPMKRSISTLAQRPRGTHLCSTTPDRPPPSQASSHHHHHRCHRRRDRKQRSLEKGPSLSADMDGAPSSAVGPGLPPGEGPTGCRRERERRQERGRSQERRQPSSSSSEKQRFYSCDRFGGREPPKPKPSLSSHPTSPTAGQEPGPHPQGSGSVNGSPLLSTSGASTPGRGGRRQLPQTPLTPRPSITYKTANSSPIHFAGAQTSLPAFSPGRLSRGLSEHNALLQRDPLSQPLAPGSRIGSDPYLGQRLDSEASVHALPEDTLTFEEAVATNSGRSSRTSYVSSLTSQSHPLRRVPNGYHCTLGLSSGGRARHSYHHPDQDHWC
Voltage-dependent T-type calcium channel subunit alpha-1G (Homo sapiens), sequence (O43497 whole entry): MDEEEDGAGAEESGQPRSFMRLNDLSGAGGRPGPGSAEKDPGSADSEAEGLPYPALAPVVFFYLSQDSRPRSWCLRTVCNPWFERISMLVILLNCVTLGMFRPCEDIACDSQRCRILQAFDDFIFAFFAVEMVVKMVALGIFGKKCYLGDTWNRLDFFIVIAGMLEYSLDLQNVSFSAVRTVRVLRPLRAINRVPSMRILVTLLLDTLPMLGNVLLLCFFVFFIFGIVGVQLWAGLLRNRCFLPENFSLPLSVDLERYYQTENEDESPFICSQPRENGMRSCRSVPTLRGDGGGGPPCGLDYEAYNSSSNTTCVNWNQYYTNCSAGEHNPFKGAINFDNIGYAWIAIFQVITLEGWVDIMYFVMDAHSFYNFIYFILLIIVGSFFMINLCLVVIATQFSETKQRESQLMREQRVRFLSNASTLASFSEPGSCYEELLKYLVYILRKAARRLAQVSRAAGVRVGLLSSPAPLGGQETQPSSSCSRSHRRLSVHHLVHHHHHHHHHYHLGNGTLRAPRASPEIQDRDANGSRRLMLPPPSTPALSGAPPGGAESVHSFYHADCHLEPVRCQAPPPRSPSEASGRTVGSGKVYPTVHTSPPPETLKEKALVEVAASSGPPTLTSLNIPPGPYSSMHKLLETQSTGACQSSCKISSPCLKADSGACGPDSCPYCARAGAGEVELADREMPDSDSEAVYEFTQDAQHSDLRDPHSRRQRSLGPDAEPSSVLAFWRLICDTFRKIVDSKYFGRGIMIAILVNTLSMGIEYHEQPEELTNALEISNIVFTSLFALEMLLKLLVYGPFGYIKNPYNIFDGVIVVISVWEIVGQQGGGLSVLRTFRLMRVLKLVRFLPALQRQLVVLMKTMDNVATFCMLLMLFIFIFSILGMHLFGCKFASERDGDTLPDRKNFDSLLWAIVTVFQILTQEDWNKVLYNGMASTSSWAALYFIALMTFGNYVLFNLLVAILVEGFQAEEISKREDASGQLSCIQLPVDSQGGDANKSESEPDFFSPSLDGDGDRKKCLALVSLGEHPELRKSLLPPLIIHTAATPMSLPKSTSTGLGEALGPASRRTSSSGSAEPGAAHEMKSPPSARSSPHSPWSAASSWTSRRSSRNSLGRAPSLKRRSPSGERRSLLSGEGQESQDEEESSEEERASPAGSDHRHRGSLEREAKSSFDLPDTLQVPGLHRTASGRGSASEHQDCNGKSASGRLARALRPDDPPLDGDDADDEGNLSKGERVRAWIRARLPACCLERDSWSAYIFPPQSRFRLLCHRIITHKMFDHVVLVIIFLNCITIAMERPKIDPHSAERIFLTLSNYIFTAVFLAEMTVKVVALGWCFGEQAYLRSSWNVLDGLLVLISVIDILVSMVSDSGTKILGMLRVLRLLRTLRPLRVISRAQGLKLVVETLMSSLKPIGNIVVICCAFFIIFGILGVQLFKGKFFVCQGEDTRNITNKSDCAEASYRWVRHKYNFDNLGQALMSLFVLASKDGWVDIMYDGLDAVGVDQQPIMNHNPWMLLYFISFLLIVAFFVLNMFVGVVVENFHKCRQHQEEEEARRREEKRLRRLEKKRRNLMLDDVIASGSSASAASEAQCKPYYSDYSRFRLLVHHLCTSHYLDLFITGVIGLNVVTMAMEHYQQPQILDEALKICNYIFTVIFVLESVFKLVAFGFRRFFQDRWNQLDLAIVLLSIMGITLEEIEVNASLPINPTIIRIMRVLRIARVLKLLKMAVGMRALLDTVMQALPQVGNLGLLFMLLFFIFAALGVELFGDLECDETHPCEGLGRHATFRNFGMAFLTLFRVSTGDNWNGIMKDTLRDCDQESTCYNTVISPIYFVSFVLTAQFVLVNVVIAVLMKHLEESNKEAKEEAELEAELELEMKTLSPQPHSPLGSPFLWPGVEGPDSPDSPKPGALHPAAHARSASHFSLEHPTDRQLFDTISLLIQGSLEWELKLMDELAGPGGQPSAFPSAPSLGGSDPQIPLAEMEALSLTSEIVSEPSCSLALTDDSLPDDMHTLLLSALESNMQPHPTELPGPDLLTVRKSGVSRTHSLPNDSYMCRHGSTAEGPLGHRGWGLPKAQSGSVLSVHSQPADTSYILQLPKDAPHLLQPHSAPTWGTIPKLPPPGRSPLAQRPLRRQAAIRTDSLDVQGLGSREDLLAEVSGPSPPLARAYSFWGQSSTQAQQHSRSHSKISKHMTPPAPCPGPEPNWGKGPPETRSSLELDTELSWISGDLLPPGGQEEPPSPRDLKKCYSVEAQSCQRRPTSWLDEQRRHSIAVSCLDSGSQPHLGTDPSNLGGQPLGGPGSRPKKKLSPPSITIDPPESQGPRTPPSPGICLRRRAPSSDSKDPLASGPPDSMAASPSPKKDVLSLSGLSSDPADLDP

inhibition [1]	inhibition [3]	inhibition [4]	Compound	Selectivity ratio [2]	Ratio IC50 [5]
77.6%	–	–	COCC(=O)O[C@]1(CCN(C)CCCc2nc3ccccc3[nH]2)CCc2cc(F)ccc2[C@@H]1C(C)C	–	–
57.9%	24.4%	90.1%	COC(=O)CC1c2ccccc2N=C(N(C)CCCCCN(C)C)N1c1ccc(-c2ccccc2)cc1 (stereo not drawn)	3.7	–
–	28.1%	–	O=C(CC1c2ccccc2N=C(N2CCCCC2)N1c1ccccc1)NCc1ccccc1 (stereo not drawn)	3.2	–

Further lines, the molecule ahead of its results:

Compound	inhibition [1]	inhibition [3]	inhibition [4]	Selectivity ratio [2]	Ratio IC50 [5]
COC(=O)CC1c2ccccc2N=C(NCCCCCN)N1c1ccc(-c2ccccc2)cc1 (stereo not drawn)	–	–	–	> 100	–
CN(C)CCCCCN(C)C1=Nc2ccccc2C(CC(=O)NCc2ccccc2)N1c1ccc(-c2ccccc2)cc1 (stereo not drawn)	42.9%	70.6%	98%	1.4	120
